# Measurements from patent publication US20140135217A1, “Use of Tetracyanodithiines as Fungicides” (BASF SE, priority 2011, published 2014).
# Tests used:
# [1] = test system: Phakopsora pachyrhizi; experiment: Glasshouse trial: protective control of soy bean rust on soy beans; type: in vivo; conditions: soy bean seedlings sprayed with 1000 ppm, inoculated 1 day later, assessed after fourteen days; untreated plants 90% infected
# Procedure: The spray solutions were prepared in several steps: The stock solution were prepared: a mixture of acetone and/or dimethylsulfoxide and the wetting agent/emulsifier Wettol, which is based on ethoxylated alkylphenoles, in a relation (volume) solvent-emulsifier of 99 to 1 was added to 25 mg of the compound to give a total of 10 ml. Water was then added to total volume of 100 ml. This stock solution was diluted with the described solvent-emulsifier-water mixture to the given concentration. Leaves of pot-grown soy bean seedlings were sprayed to run-off with an aqueous suspension, containing the concentration of active ingredient or their mixture as described below. The plants were allowed to air-dry. […] Then the plants were inoculated with spores of Phakopsora pachyrhizi. […] The extent of fungal attack on the leaves was visually assessed as % diseased leaf area.
# [2] = test system: Botryis cinerea; type: cell-based; conditions: Botrci; vs compound-free control (100%); 405 nm, 7 days after inoculation; concentration not given
# [3] = test system: Pyriculana oryzae; type: cell-based; conditions: Pyrior; vs compound-free control (100%); 405 nm, 7 days after inoculation; concentration not given
# [4] = test system: Septoria tritici; type: cell-based
# [5] = test system: Alternaria solani; type: cell-based
# [6] = test system: Pyrenophora teres; type: cell-based
# [7] = test system: Rhynchosporium secalis; type: cell-based
# [8] = test system: Rhizoctonia solani; type: cell-based
# [9] = test system: Colletotrichum truncatum; type: cell-based
# [10] = test system: Corynespora cassiicola; type: cell-based
# [11] = test system: Septoria glycines; type: cell-based
# [12] = test system: Cercospora sojina; type: cell-based
# [13] = test system: Fusarium culmorum; type: cell-based
# [14] = test system: Fusarium poae; type: cell-based
# [15] = test system: Fusarium oxysporum; type: cell-based
# [16] = test system: Cochliobolus miyabeanus; experiment: Microtiter test, brown spot on rice (Cochmi); type: cell-based; conditions: vs compound-free control (100%), 405 nm, 7 days after inoculation, concentration not given
# [17] = test system: Colletotrichum lagenarium; type: cell-based
# [18] = test system: Phytophthora infestans; type: cell-based; conditions: Phytin; pea juice-based or DDC medium; vs compound-free control (100%); 405 nm, 7 days after inoculation; concentration not given
structure (smiles),measurement,setting,value
"N#CC1=C(C#N)SC(C#N)=C(C#N)S1 [compound I.A, 2,3,5,6-tetracyano-[1,4]dithiine]",infection (% diseased leaf area),[1],4%
same,relative growth in % of the pathogen,[2],1%
same,relative growth in % of the pathogen,[3],0%
same,relative growth in % of the pathogen,[4],0%
same,relative growth in % of the pathogen,[5],0%
same,relative growth in % of the pathogen,[6],0%
same,relative growth in % of the pathogen,[7],0%
same,relative growth in % of the pathogen,[8],0%
same,relative growth in % of the pathogen,[9],0%
same,relative growth in % of the pathogen,[10],1%
same,relative growth in % of the pathogen,[11],0%
same,relative growth in % of the pathogen,[12],0%
same,relative growth in % of the pathogen,[13],0%
same,relative growth in % of the pathogen,[14],0%
same,relative growth in % of the pathogen,[15],0%
same,relative growth in % of the pathogen,[16],0%
same,relative growth in % of the pathogen,[17],0%
same,relative growth in % of the pathogen,[18],0%
